Results: ChEMBL document CHEMBL1201862, “PubChem BioAssay data set” (2004)
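How tested: cells in 96-well plates exposed to compound for 48 hours at five concentrations. At the GI50, growth is halved.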 The source made the active and inactive calls. Cut-off read from the data, not from the text of the source: active = GI50 up to about 1.1 µM and inactive = higher.

Legend:
Assay in all cases: NCI-60 cell line screen, 48 h
KM12 = system: KM12
NCI-H460 = system: NCI-H460
K562 = system: K562
NCI-H23 = system: NCI-H23
U-251 = system: U-251
UO-31 = system: UO-31
SK-OV-3 = system: SK-OV-3
RPMI-8226 = system: RPMI-8226
CAKI-1 = system: CAKI-1
MCF7 = system: MCF7
SK-MEL-5 = system: SK-MEL-5
PC-3 = system: PC-3
OVCAR-5 = system: OVCAR-5
SF-539 = system: SF-539
MDA-MB-231 = system: MDA-MB-231
EKVX = system: EKVX
IGROV-1 = system: IGROV-1
HOP-62 = system: HOP-62
MDA-N = system: MDA-N
SNB-19 = system: SNB-19
ACHN = system: ACHN
SW-620 = system: SW-620
NCI-H522 = system: NCI-H522
DU-145 = system: DU-145
SF-268 = system: SF-268
SK-MEL-2 = system: SK-MEL-2
HCC 2998 = system: HCC 2998
MOLT-4 = system: MOLT-4
OVCAR-3 = system: OVCAR-3
SNB-75 = system: SNB-75
SK-MEL-28 = system: SK-MEL-28
BT-549 = system: BT-549
HL-60 = system: HL-60
A498 = system: A498
UACC-257 = system: UACC-257
HOP-92 = system: HOP-92
RXF 393 = system: RXF 393
SF-295 = system: SF-295
Malme-3M = system: Malme-3M
786-0 = system: 786-0
MDA-MB-435 = system: MDA-MB-435
NCI-H226 = system: NCI-H226
A549 = system: A549
HT-29 = system: HT-29
M14 = system: M14
TK-10 = system: TK-10
HCT-116 = system: HCT-116
OVCAR-8 = system: OVCAR-8
OVCAR-4 = system: OVCAR-4
NCI/ADR-RES = system: NCI/ADR-RES
COLO 205 = system: COLO 205
UACC-62 = system: UACC-62
CCRF-CEM = system: CCRF-CEM
Hs-578T = system: Hs-578T
T47D = system: T47D
SR = system: SR
SN12C = system: SN12C
LOX IMVI = system: LOX IMVI
HCT-15 = system: HCT-15

## COC(C(=O)C(O)C(C)O)C1CC2C=C3C=C(OC4CC(OC5CC(O)C(OC)C(C)O5)C(OC(C)=O)C(C)O4)C(C)C(O)=C3C(O)=C2C(=O)C1OC1CC(OC2CC(OC3CC(C)(O)C(OC(=O)C(C)C)C(C)O3)C(O)C(C)O2)C(O)C(C)O1 (stereo not drawn)
KM12
  GI50: < 10 nM (active)
NCI-H460
  GI50: < 10 nM (active)
K562
  GI50: < 10 nM (active)
NCI-H23
  GI50: < 10 nM (active)
U-251
  GI50: < 10 nM (active)
UO-31
  GI50: < 10 nM (active)
SK-OV-3
  GI50: < 10 nM (active)
RPMI-8226
  GI50: < 10 nM (active)
CAKI-1
  GI50: < 10 nM (active)
MCF7
  GI50: < 10 nM (active)
SK-MEL-5
  GI50: < 10 nM (active)
PC-3
  GI50: < 10 nM (active)
OVCAR-5
  GI50: < 10 nM (active)
SF-539
  GI50: < 10 nM (active)
MDA-MB-231
  GI50: < 10 nM (active)
EKVX
  GI50: < 10 nM (active)
IGROV-1
  GI50: < 10 nM (active)
HOP-62
  GI50: < 10 nM (active)
MDA-N
  GI50: < 10 nM (active)
SNB-19
  GI50: < 10 nM (active)
ACHN
  GI50: < 10 nM (active)
SW-620
  GI50: < 10 nM (active)
NCI-H522
  GI50: < 10 nM (active)
DU-145
  GI50: < 10 nM (active)
SF-268
  GI50: < 10 nM (active)
SK-MEL-2
  GI50: < 10 nM (active)
HCC 2998
  GI50: < 10 nM (active)
MOLT-4
  GI50: < 10 nM (active)
OVCAR-3
  GI50: < 10 nM (active)
SNB-75
  GI50: < 10 nM (active)
SK-MEL-28
  GI50: < 10 nM (active)
BT-549
  GI50: < 10 nM (active)
HL-60
  GI50: < 10 nM (active)
A498
  GI50: < 10 nM (active)
UACC-257
  GI50: < 10 nM (active)
HOP-92
  GI50: < 10 nM (active)
RXF 393
  GI50: < 10 nM (active)
SF-295
  GI50: < 10 nM (active)
Malme-3M
  GI50: < 10 nM (active)
786-0
  GI50: < 10 nM (active)
MDA-MB-435
  GI50: < 10 nM (active)
NCI-H226
  GI50: < 10 nM (active)
A549
  GI50: < 10 nM (active)
HT-29
  GI50: < 10 nM (active)
M14
  GI50: < 10 nM (active)
TK-10
  GI50: < 10 nM (active)
HCT-116
  GI50: < 10 nM (active)
OVCAR-8
  GI50: < 10 nM (active)
OVCAR-4
  GI50: < 10 nM (active)
NCI/ADR-RES
  GI50: < 10 nM (active)
COLO 205
  GI50: < 10 nM (active)
UACC-62
  GI50: < 10 nM (active)
CCRF-CEM
  GI50: < 10 nM (active)
Hs-578T
  GI50: < 10 nM (active)
T47D
  GI50: < 10 nM (active)
SR
  GI50: < 10 nM (active)
SN12C
  GI50: < 10 nM (active)
LOX IMVI
  GI50: < 10 nM (active)
HCT-15
  GI50: < 10 nM

## C=C1C(=O)OC2CC1C(O)C/C(C)=C/CC/C(C)=C/C(O)CC2C (stereo not drawn)
KM12
  GI50: 5210 nM (inactive)
NCI-H460
  GI50: 2880 nM (inactive)
K562
  GI50: 1000 nM (active)
NCI-H23
  GI50: 2440 nM (inactive)
U-251
  GI50: 4680 nM (inactive)
UO-31
  GI50: 2330 nM (inactive)
SK-OV-3
  GI50: 12700 nM (inactive)
RPMI-8226
  GI50: 1320 nM (inactive)
CAKI-1
  GI50: 2750 nM (inactive)
MCF7
  GI50: 2060 nM (inactive)
SK-MEL-5
  GI50: 4190 nM (inactive)
PC-3
  GI50: 3110 nM (inactive)
OVCAR-5
  GI50: 4970 nM (inactive)
SF-539
  GI50: 2350 nM (inactive)
MDA-MB-231
  GI50: 3520 nM (inactive)
EKVX
  GI50: 1870 nM (inactive)
IGROV-1
  GI50: 2750 nM (inactive)
HOP-62
  GI50: 11400 nM (inactive)
MDA-N
  GI50: 1190 nM (inactive)
SNB-19
  GI50: 5470 nM (inactive)
ACHN
  GI50: 1650 nM (inactive)
SW-620
  GI50: 2000 nM (inactive)
NCI-H522
  GI50: 216 nM (active)
DU-145
  GI50: 2200 nM (inactive)
SF-268
  GI50: 2790 nM (inactive)
SK-MEL-2
  GI50: 3400 nM (inactive)
HCC 2998
  GI50: 1830 nM (inactive)
MOLT-4
  GI50: 625 nM (active)
OVCAR-3
  GI50: 2700 nM (inactive)
SNB-75
  GI50: 3430 nM (inactive)
SK-MEL-28
  GI50: 4900 nM (inactive)
BT-549
  GI50: 2310 nM (inactive)
HL-60
  GI50: 262 nM (active)
A498
  GI50: 3240 nM (inactive)
UACC-257
  GI50: 2400 nM (inactive)
HOP-92
  GI50: 1260 nM (inactive)
RXF 393
  GI50: 1010 nM (active)
SF-295
  GI50: 13300 nM (inactive)
Malme-3M
  GI50: 2370 nM (inactive)
786-0
  GI50: 1530 nM (inactive)
MDA-MB-435
  GI50: 2850 nM (inactive)
NCI-H226
  GI50: 9330 nM (inactive)
A549
  GI50: 12400 nM (inactive)
HT-29
  GI50: 1780 nM (inactive)
M14
  GI50: 2510 nM (inactive)
TK-10
  GI50: 2050 nM (inactive)
HCT-116
  GI50: 1450 nM (inactive)
OVCAR-8
  GI50: 1890 nM (inactive)
OVCAR-4
  GI50: 2450 nM (inactive)
NCI/ADR-RES
  GI50: 2000 nM (inactive)
COLO 205
  GI50: 1490 nM (inactive)
UACC-62
  GI50: 2340 nM (inactive)
CCRF-CEM
  GI50: 203 nM (active)
Hs-578T
  GI50: 3030 nM (inactive)
T47D
  GI50: 824 nM (active)
SR
  GI50: 520 nM (active)
SN12C
  GI50: 1850 nM (inactive)
LOX IMVI
  GI50: 1290 nM (inactive)
HCT-15
  GI50: 1730 nM
